Measured values as given in publication PMC11239005, “Preclinical studies of RA475, a guanidine-substituted spirocyclic candidate RPN13/ADRM1 inhibitor for treatment of ovarian cancer” (PLOS ONE, 2024).

Target: T1, RPN13 (Homo sapiens, UniProt Q16186)
T1 construct: performed the labeling assay after treating ovarian cancer cell lysates (ES2 and SKOV3) in the presence of titrated doses of RA475; endogenous in cells; host or cells: ES2 and SKOV3 ovarian cancer cell lysates
Assay: Up284B competition labelling in ES2 and SKOV3 cell lysate
Assay type: binding
Conditions: titrated RA475, bortezomib 1 μM, Up284B 5 μM
Experimental: Clarified cell lysate in MPER buffer (Pierce) was pretreated with streptavidin-coated magnetic beads for 45 min at 4°C to deplete non-specific biotinylated proteins in the cell lysate. […] Next, the samples were mixed with Laemmli sample buffer (BioRad) and boiled for 5 min. The proteins were separated using a 4–15% Bio-Rad Mini-PROTEAN SDS-PAGE gel (1 h at 100 V), and transferred to PVDF membrane overnight at 4°C (24 V). The membrane was blocked with 5% (w/v) BSA in phosphate buffered saline containing 0.1% (v/v) Tween 20 (PBST) for 1 h at RT, and washed for 20 min (3X with PBST). Then the membrane was probed with HRP-streptavidin (1:10,000 in PBST) for 1 h at RT, washed for 30 min (3X with PBST), and developed using HyGLO chemiluminescent detection reagent (Denville) and visualized using a Biorad Chemidoc imager.
Fig 2 RA475 binds to RPN13 and induces rapid apoptosis. […] C, D) RA475 competition labelling experiment. C) ES2 D) SKOV3 clarified cell lysate (40 μg/sample) in MPER buffer was pretreated with streptavidin-coated magnetic beads for 45 min at 4°C to deplete non-specific biotinylated proteins in the cell lysate. […] Next, the samples were mixed with Laemmli sample buffer (BioRad) and boiled for 5 min. The proteins were separated using a 4–15% Bio-Rad Mini-PROTEAN SDS-PAGE gel (1 h at 100 V), and transferred to PVDF membrane overnight at 4°C (24 V). […]

T1 sequence (Q16186 whole entry): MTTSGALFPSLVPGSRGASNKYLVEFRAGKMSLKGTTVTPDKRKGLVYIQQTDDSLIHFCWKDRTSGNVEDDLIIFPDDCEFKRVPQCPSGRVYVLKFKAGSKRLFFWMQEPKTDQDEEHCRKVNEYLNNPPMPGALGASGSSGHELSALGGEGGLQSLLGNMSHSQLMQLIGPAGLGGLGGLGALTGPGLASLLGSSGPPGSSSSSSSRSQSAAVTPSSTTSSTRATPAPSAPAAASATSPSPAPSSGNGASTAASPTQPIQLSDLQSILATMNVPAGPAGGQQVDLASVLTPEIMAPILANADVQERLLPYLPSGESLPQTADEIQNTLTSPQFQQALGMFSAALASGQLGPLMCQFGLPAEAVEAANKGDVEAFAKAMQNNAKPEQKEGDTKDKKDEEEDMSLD

Structure (SMILES): Cl.Cl.N#Cc1ccc(/C=C2/C(=O)/C(=C/c3ccc(C#N)cc3)C23CCN(C(=N)N)CC3)cc1 [RA475, 1,3-bis((E)-4-cyanobenzylidene)-2-oxo-7-azaspiro[3.5]nonane-7-carboximidamide dihydrochloride]
- competition with Up284B for binding to RPN13: efficiently competes
